According to patent publication US10703764B2, “Benzopiperazine compositions as BET bromodomain inhibitors” (FORMA Therapeutics, Inc., priority 2013, dated 2020):

How the values were obtained:
BRD4 BD2 = biological target: T1, BRD4 BD2 (Homo sapiens, UniProt O60885); assay: AlphaScreen binding assay, BRD4 Bromodomain 2
T1 construct: made in house
Procedure, shortened: (§1)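 Compound dilution series were mixed with His-tagged BRD4 bromodomain and biotinylated tetra-acetylated H4 (1-21) peptide at pH 7.3 (BD1 and peptide at 50 nM, BD2 and peptide at 100 nM). Donor and acceptor beads were then added, and plates were equilibrated at least 1 h before reading. IC50 values were fitted with a four-parameter logistic model.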

BRD4 BD1 = biological target: T2, BRD4 BD1 (Homo sapiens, UniProt O60885); assay: AlphaScreen binding assay, BRD4 Bromodomain 1
T2 construct: made in house
Procedure, shortened: as §1

Structure (SMILES) | IC50 (BRD4 BD2) | IC50 (BRD4 BD1)
CC(=O)N1c2ccccc2N(C(=O)[C@H](C)c2ccccc2)C[C@@H]1C [Example I-715] | > 500 nM | > 10000 nM
CC(=O)N1c2ccc(-c3cnn(C4COC4)c3)cc2N(C(=O)OCCC2COC2)C[C@@H]1C [Example I-67, (S)-2-(oxetan-3-yl)ethyl 4-acetyl-3-methyl-7-(1-(oxetan-3-yl)-1H-pyrazol-4-yl)-3,4-dihydroquinoxaline-1(2H)-carboxylate] | > 500 nM | > 10000 nM
CC(=O)N1c2ccc(-c3ccc(S(C)(=O)=O)cc3)cc2N(C(=O)c2ccc(N)cc2)C[C@@H]1C [Example I-986] | > 500 nM | > 10000 nM
CC(=O)N1c2ccccc2N(C(=O)c2c(C)noc2C)C[C@@H]1C [Example I-768] | > 500 nM | > 10000 nM
CC(=O)N1c2ccccc2N(C(=O)c2ccc(F)cn2)C[C@@H]1C [Example I-763] | > 500 nM | > 10000 nM
CC(=O)N1c2ccc(-c3cnn(CCN4CCCC4=O)c3)cc2N(C(=O)C2CC2)C[C@@H]1C [Example I-660] | 50 to 500 nM | 1000 to 10000 nM
CC(=O)N1c2ccc(Nc3ccccc3)cc2N(C(=O)c2ccco2)C[C@@H]1C [Example I-991] | 50 to 500 nM | 1000 to 10000 nM
CC(=O)N1c2ccccc2N(Cc2ccccc2OCCN(C)C)C[C@@H]1C [Example I-906] | 50 to 500 nM | > 10000 nM
CC(=O)N1c2ccccc2N(Cc2cc(C(F)(F)F)cc(C(F)(F)F)c2)C[C@@H]1C [Example I-900] | > 500 nM | > 10000 nM
COC(=O)N1c2ccc(-c3cnn(C4CC4)c3)cc2N(C(=O)Oc2cccnc2)C[C@@H]1C [Example I-1283] | 50 to 500 nM | 1000 to 10000 nM
CC(=O)N1c2ccc(-c3cnn(C)c3C)cc2N(C(=O)OC(C)C)C[C@@H]1C [Example I-339] | 50 to 500 nM | 1000 to 10000 nM
CC(C)OC(=O)N1C[C@H](C)N(C(=O)C2CC2)c2ccc(-c3cnn(CC#N)c3)cc21 [Example I-622] | > 500 nM | 1000 to 10000 nM
CC(=O)N1c2ccccc2N(C(=O)c2ccc(C(C)C)nc2)C[C@@H]1C [Example I-729] | > 500 nM | > 10000 nM
COc1ncccc1C(=O)N1C[C@H](C)N(C(C)=O)c2ccccc21 [Example I-758] | > 500 nM | > 10000 nM
CC(=O)N1c2ccccc2N(S(=O)(=O)Cc2ccc(C#N)cc2)C[C@@H]1C [Example I-963] | > 500 nM | > 10000 nM
CC(=O)N1c2ccc(-c3ccc(S(C)(=O)=O)cc3)cc2N(C(=O)c2ccc(F)cc2)C[C@@H]1C [Example I-878] | 50 to 500 nM | > 10000 nM
COC(=O)N1c2ccc(-c3cnn(CCO)c3)cc2N(C(=O)Oc2ccccn2)C[C@@H]1C [Example I-1335] | 50 to 500 nM | 1000 to 10000 nM
CC(=O)N1c2ccccc2N(Cc2ccc(F)cc2F)C[C@@H]1C [Example I-897] | > 500 nM | > 10000 nM
CC(=O)N1c2ccc(-c3cnn(CCS(C)(=O)=O)c3)cc2N(C(=O)Oc2ccc(F)cc2)C[C@@H]1C [Example I-1017] | > 500 nM | 1000 to 10000 nM

Structure (SMILES) | IC50 (BRD4 BD2) | IC50 (BRD4 BD1)
COC(=O)N1c2ccc(-c3ccc(NS(C)(=O)=O)cc3)cc2N(C(=O)Oc2ccccn2)C[C@@H]1C [Example I-1317] | 50 to 500 nM | 1000 to 10000 nM
CC(C)OC(=O)N1C[C@H](C)N(C(=O)C2CC2)c2ccc(-c3cnn(CC(=O)N4CCCCC4)c3)cc21 [Example I-614] | 50 to 500 nM | 1000 to 10000 nM
CC(=O)c1ccc(S(=O)(=O)N2C[C@H](C)N(C(C)=O)c3ccccc32)cc1 [Example I-957] | > 500 nM | > 10000 nM
CC(=O)N1c2ccc(-c3cnn(CC(=O)N(C)C)c3)cc2N(C(=O)C2CC2)C[C@@H]1C [Example I-683] | 50 to 500 nM | 1000 to 10000 nM
CC(=O)N1c2ccc(-c3ccc(F)cc3)cc2N(C(=O)c2ccco2)C[C@@H]1C [Example I-818] | < 50 nM | 1000 to 10000 nM
CC(=O)N1c2ccccc2N(C(=O)CCN2CCCCCC2=O)C[C@@H]1C [Example I-765] | > 500 nM | > 10000 nM
CC(=O)N1c2ccc(-c3ccc(S(C)(=O)=O)cc3)cc2N(C(=O)c2nccn2C)C[C@@H]1C [Example I-784] | > 500 nM | > 10000 nM
CC(=O)N1c2ccc(-c3cc4ccccc4n3C)cc2N(C(=O)c2ccco2)C[C@@H]1C [Example I-839] | > 500 nM | > 10000 nM
CC(=O)N1c2ccc(-c3ccc(S(C)(=O)=O)cc3)cc2N(C(=O)c2ncoc2C)C[C@@H]1C [Example I-884] | > 500 nM | > 10000 nM
CC(=O)N1c2ccc(-c3cccc4c3cnn4C)cc2N(C(=O)c2ccco2)C[C@@H]1C [Example I-858] | 50 to 500 nM | 1000 to 10000 nM
C[C@H]1CN(C(=O)C2CC2)c2cc(-c3ccc(N4CCCS4(=O)=O)cc3)ccc2N1C(=O)C1CC1 [Example I-440] | 50 to 500 nM | 100 to 1000 nM
CC(=O)N1c2ccc(-c3ccc(S(C)(=O)=O)cc3)cc2N(C(=O)Nc2ccc(Cl)cc2)C[C@@H]1C [Example I-975] | > 500 nM | > 10000 nM
CC(=O)N1c2ccccc2N(C(=O)CC(C)C)C[C@@H]1C [Example I-708] | > 500 nM | > 10000 nM
CC(=O)N1c2ccc(-c3ccc(S(C)(=O)=O)cc3)cc2N(C(=O)c2cc(C)[nH]n2)CC1C (stereo not drawn) [Example I-981] | 50 to 500 nM | 1000 to 10000 nM
CC(=O)N1c2ccccc2N(C(=O)CCN(C)C)C[C@@H]1C [Example I-693] | > 500 nM | > 10000 nM
C#CCOC(=O)N1C[C@H](C)N(C(C)=O)c2ccc(-c3ccc(S(C)(=O)=O)cc3)cc21 [Example I-240] | 50 to 500 nM | 1000 to 10000 nM
CC(=O)N1c2ccc(-c3cnn(C4CC4)c3)cc2N(C(=O)Oc2cncc(C)c2)C[C@@H]1C [Example I-520] | 50 to 500 nM | 1000 to 10000 nM
COc1cccc(S(=O)(=O)N2C[C@H](C)N(C(C)=O)c3ccccc32)c1 [Example I-945] | > 500 nM | > 10000 nM
COC(=O)N1c2ccc(-c3ccc(S(=O)(=O)CCN)cc3)cc2N(C(=O)OC(C)C)C[C@@H]1C [Example I-488] | 50 to 500 nM | 100 to 1000 nM

Structure (SMILES) | IC50 (BRD4 BD2) | IC50 (BRD4 BD1)
CC(=O)N1c2ccc(-c3ccc(S(C)(=O)=O)cc3)cc2N(C(=O)c2ccco2)CC1CF (stereo not drawn) [Example I-7, 1-(2-(fluoromethyl)-4-(furan-2-carbonyl)-6-(4-(methylsulfonyl)phenyl)-3,4-dihydroquinoxalin-1(2H)-yl)ethan-1-one] | > 500 nM | > 10000 nM
CC(=O)N1c2ccc(-c3cc(C(F)(F)F)nn3C)cc2N(C(=O)c2ccco2)C[C@@H]1C [Example I-851] | > 500 nM | > 10000 nM
CC(=O)N1c2ccccc2N(S(=O)(=O)c2ccc(C#N)cc2)C[C@@H]1C [Example I-938] | > 500 nM | > 10000 nM
CC(=O)N1c2ccccc2N(Cc2cc(C)ccc2C)C[C@@H]1C [Example I-903] | > 500 nM | > 10000 nM
CC(=O)N1c2ccc(-c3ccc4[nH]c(=O)[nH]c4c3)cc2N(C(=O)c2ccco2)CC1C (stereo not drawn) [Example I-394] | < 50 nM | 100 to 1000 nM
C[C@H]1CN(C(=O)c2ccco2)c2cc(-c3ccc(C(=O)N(C)C)cc3)ccc2N1C(=O)C(F)(F)F [Example I-362] | > 500 nM | > 10000 nM
COC(=O)N1c2ccc(-c3ccc(S(C)(=O)=O)cc3)cc2N(C(=O)Oc2cccnc2)C[C@@H]1C [Example I-1276] | 50 to 500 nM | 1000 to 10000 nM
CC(=O)N1c2ccccc2N(C(=O)Cn2cnc3ccccc32)C[C@@H]1C [Example I-766] | > 500 nM | > 10000 nM
CC(=O)N1c2ccc(-c3cnn(C)n3)cc2N(C(=O)c2ccco2)C[C@@H]1C [Example I-419] | > 500 nM | 100 to 1000 nM
CC(=O)N1c2ccccc2N(C(=O)COc2cccc3ccccc23)C[C@@H]1C [Example I-736] | > 500 nM | > 10000 nM
CC(=O)N1c2ccc(-c3ccc4nncn4n3)cc2N(C(=O)c2ccco2)C[C@@H]1C [Example I-396] | 50 to 500 nM | 1000 to 10000 nM
CC(=O)N1c2ccccc2N(S(=O)(=O)c2cccc(Cl)c2)C[C@@H]1C [Example I-946] | > 500 nM | > 10000 nM
CC(=O)N1c2ccccc2N(S(=O)(=O)Cc2ccccc2Cl)C[C@@H]1C [Example I-953] | > 500 nM | > 10000 nM
CC(=O)N1c2cnc(-c3ccc(S(C)(=O)=O)cc3)cc2N(C(=O)c2ccco2)C[C@@H]1C [Example I-57, (S)-1-(1-(furan-2-carbonyl)-3-methyl-7-(4-(methylsulfonyl)phenyl)-2,3-dihydropyrido[3,4-b]pyrazin-4(1H)-yl)ethanone] | 50 to 500 nM | > 10000 nM
CC(=O)N1c2ccccc2N(Cc2nccs2)C[C@@H]1C [Example I-915] | > 500 nM | > 10000 nM
CC[C@H]1CN(C(=O)c2ccco2)c2cc(-c3ccc(S(C)(=O)=O)cc3)ccc2N1C(C)=O [Example I-6, (S)-1-(2-ethyl-4-(furan-2-carbonyl)-6-(4-(methylsulfonyl)phenyl)-3,4-dihydroquinoxalin-1(2H)-yl)ethan-1-one] | 50 to 500 nM | 1000 to 10000 nM
CO[C@H](C(=O)N1C[C@H](C)N(C(C)=O)c2ccccc21)c1ccccc1 [Example I-741] | > 500 nM | > 10000 nM
CC(=O)N1c2ccc(-c3ccc(S(C)(=O)=O)cc3)cc2N(C(=O)Nc2ccc(C)cc2)C[C@@H]1C [Example I-974] | 50 to 500 nM | 1000 to 10000 nM
C[C@H]1CN(C(=O)c2ccco2)c2cc(-c3ccc(S(C)(=O)=O)cc3)ccc2N1S(C)(=O)=O [Example I-96, (S)-furan-2-yl(3-methyl-4-(methylsulfonyl)-7-(4-(methylsulfonyl)phenyl)-3,4-dihydroquinoxalin-1(2H)-yl)methanone] | > 500 nM | > 10000 nM
